Measured values: ChEMBL document CHEMBL4002541 (Medchemcomm, 2014)
Active and inactive are the calls of the source. The calls are words filed in the database; no cut-off is given here.

Tests used:
[1] = biological target: T1, Melatonin receptor type 1A (Homo sapiens, UniProt P48039); test: Displacement of 2-[125I]Iodomelatonin from human MT1 receptor expressed in CHO cell membranes after 120 mins
[2] = biological target: T2, Melatonin receptor type 1B (Homo sapiens, UniProt P49286); test: Displacement of 2-[125I]Iodomelatonin from human MT2 receptor expressed in CHO cell membranes after 120 mins
T2 sequence (P49286 whole entry): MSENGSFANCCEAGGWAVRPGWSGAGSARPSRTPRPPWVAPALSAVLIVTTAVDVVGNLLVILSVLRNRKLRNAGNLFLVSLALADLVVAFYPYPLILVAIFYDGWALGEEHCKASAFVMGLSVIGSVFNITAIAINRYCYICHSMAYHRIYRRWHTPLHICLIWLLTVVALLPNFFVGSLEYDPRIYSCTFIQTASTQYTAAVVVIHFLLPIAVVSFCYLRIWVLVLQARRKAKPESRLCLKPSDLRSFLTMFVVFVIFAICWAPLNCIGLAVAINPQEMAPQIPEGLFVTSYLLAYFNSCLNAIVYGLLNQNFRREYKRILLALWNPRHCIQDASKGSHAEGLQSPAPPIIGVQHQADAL

[3] = biological target: T3, 5-hydroxytryptamine receptor 2C (Homo sapiens, UniProt P28335); test: Displacement of [3H]mesulergine from human 5HT2C (VSV) receptor expressed in CHO cell membranes after 60 mins by scintillation counting method
T3 sequence (P28335 whole entry): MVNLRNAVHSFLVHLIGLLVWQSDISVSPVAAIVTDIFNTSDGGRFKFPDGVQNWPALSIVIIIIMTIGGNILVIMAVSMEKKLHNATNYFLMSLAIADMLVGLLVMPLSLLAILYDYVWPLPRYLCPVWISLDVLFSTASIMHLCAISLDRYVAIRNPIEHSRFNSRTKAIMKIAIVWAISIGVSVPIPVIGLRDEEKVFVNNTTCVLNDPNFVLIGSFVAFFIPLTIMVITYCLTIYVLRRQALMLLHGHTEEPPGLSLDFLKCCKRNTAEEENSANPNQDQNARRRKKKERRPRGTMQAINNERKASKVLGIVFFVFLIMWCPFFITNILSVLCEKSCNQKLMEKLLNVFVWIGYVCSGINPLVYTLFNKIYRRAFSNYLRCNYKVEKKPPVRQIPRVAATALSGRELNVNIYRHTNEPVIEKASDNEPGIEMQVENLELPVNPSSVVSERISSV

[4] = biological target: T1, Melatonin receptor type 1A; test: Agonist activity at human MT1 receptor expressed in CHO cells after 1 hr by [35S]GTPgammaS binding assay; format: functional, cell-based
[5] = biological target: T2, Melatonin receptor type 1B; test: Agonist activity at human MT2 receptor expressed in CHO cells after 1 hr by [35S]GTPgammaS binding assay; format: functional, cell-based
[6] = biological target: T4, 5-hydroxytryptamine receptor 2C (Homo sapiens) (UniProt P28335); test: Antagonist activity at human 5HT2C (VSV) receptor expressed in CHO cells assessed as inhibition of 5-HT-induced [3H]inositol phosphate production preincubated for 20 mins followed by 5-HT addition relative to 5-HT; format: functional, cell-based
T4 sequence (whole entry): T3 sequence (P28335 whole entry)

[7] = biological target: T1, Melatonin receptor type 1A; test: Partial agonist activity at human MT1 receptor expressed in CHO cells after 1 hr by [35S]GTPgammaS binding assay; format: functional, cell-based
[8] = biological target: T5, Melatonin receptor type 1B (Homo sapiens) (UniProt P49286); test: (§1) Partial agonist activity at human MT2 receptor expressed in CHO cells after 1 hr by [35S]GTPgammaS binding assay; format: functional, cell-based
T5 sequence (whole entry): T2 sequence (P49286 whole entry)

[9] = biological target: T2, Melatonin receptor type 1B; test: as §1; format: functional, cell-based
[10] = biological target: T4, 5-hydroxytryptamine receptor 2C (Homo sapiens); test: Antagonist activity at human 5HT2C (VSV) receptor expressed in CHO cells assessed as inhibition of 5-HT-induced [3H]inositol phosphate production preincubated for 20 mins followed by 5-HT addition; format: functional, cell-based
Mus musculus [11] = test: Antidepressant activity in OF1 mouse assessed as reduction in immobility time at 0.1 to 10 mg/kg administered 40 mins prior to testing measured for 6 mins by tail suspension test; format: functional, organism-based
Homo sapiens = organism: Homo sapiens; test: Selectivity ratio of Ki for human MT1 receptor to Ki for human MT2 receptor
[12] = biological target: T1, Melatonin receptor type 1A; test: Binding affinity to MT1 receptor (unknown origin)
[13] = biological target: T2, Melatonin receptor type 1B; test: Binding affinity to MT2 receptor (unknown origin)
Mus musculus [14] = test: Antidepressant activity in OF1 mouse assessed as reduction in immobility time at 0.1 mg/kg administered 40 mins prior to testing measured for 6 mins by tail suspension test; format: functional, organism-based
Mus musculus [15] = test: Antidepressant activity in OF1 mouse assessed as reduction in immobility time at 1 to 10 mg/kg administered 40 mins prior to testing measured for 6 mins by tail suspension test; format: functional, organism-based
Mus musculus [16] = test: Antidepressant activity in OF1 mouse assessed as reduction in immobility time at 64 mg/kg administered 40 mins prior to testing measured for 6 mins by tail suspension test; format: functional, organism-based

T1 sequence (P48039 whole entry): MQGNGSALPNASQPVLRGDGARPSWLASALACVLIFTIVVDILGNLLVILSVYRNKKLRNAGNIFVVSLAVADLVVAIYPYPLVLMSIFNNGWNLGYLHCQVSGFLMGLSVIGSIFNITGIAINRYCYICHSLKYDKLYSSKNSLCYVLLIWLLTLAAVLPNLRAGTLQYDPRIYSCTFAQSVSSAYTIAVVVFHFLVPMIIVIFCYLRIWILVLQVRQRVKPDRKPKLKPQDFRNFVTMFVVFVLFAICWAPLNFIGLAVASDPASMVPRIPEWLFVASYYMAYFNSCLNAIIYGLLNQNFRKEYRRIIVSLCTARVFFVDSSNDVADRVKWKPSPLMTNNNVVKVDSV

Compound: COc1ccc2cccc(C(CO)CNC(=O)C(F)F)c2c1 (stereo not drawn)
- Ki [1]: 1.91 nM
- Ki [2]: 0.347 nM
- Ki [3]: 692 nM
- EC50 [4]: 10.2 nM
- EC50 [5]: 0.372 nM

Compound: COc1ccc2cccc(C(CO)CNC(C)=O)c2c1 (stereo not drawn)
- Ki [1]: 11 nM
- Ki [2]: 13.8 nM
- Ki [3]: 229 nM
- EC50 [4]: 72.4 nM
- EC50 [5]: 145 nM

Compound: CCC(=O)NCC(CO)c1cccc2ccc(OC)cc12 (racemic)
- Ki [1]: 1.35 nM
- Ki [2]: 2.95 nM
- Ki [3]: 708 nM
- EC50 [4]: 49 nM
- EC50 [5]: 2.75 nM

Compound: COc1ccc2cccc(CCNC(C)=O)c2c1
- Imax [6]: 98%

Compound: COc1ccc2cccc(C(CO)CNC(=O)CF)c2c1 (racemic)
- Ki [2]: 0.537 nM
- Ki [3]: 166 nM
- EC50 [4]: 25.1 nM
- EC50 [5]: 0.631 nM

Compound: COc1ccc2cccc([C@@H](CO)CNC(=O)CF)c2c1
- Ki [1]: 5.89 nM
- Ki [2]: 0.977 nM
- Ki [3]: 186 nM
- EC50 [7]: 79.4 nM
- Emax [7]: 62%
- Emax [8]: 99%
- EC50 [9]: 0.794 nM
- pKb [10]: 6.3
- Activity (Mus musculus [11]): Active
- Imax [6]: 97%

Compound: CCC(=O)NC[C@@H](CO)c1cccc2ccc(OC)cc12
- Ki [1]: 182 nM
- Ki [2]: 5.5 nM
- Ki [3]: > 10000 nM
- Ratio Ki (Homo sapiens): 53
- EC50 [4]: 389 nM
- EC50 [5]: 7.41 nM
- Activity (Mus musculus [11]): inactive

Compound: COc1cc2c([C@@H](C)CNC(C)=O)c[nH]c2cc1Cl
- Ki [12]: 0.0794 nM
- Ki [13]: 0.0398 nM

Compound: COc1ccc2cccc([C@H](CO)CNC(=O)CF)c2c1
- Ki [1]: 347 nM
- Ki [2]: 52.5 nM
- Ki [3]: > 10000 nM
- Ratio Ki (Homo sapiens): 7
- EC50 [4]: 1050 nM
- EC50 [5]: 25.1 nM
- Activity (Mus musculus [11]): inactive

Compound: CCC(=O)NC[C@H](CO)c1cccc2ccc(OC)cc12
- Ki [1]: 3.39 nM
- Ki [2]: 0.316 nM
- Ki [3]: 417 nM
- EC50 [7]: 19.5 nM
- Emax [7]: 59%
- Emax [8]: 107%
- EC50 [9]: 1.26 nM
- pKb [10]: 6
- Activity (Mus musculus [14]): inactive
- Imax [6]: 79%
- Activity (Mus musculus [15]): Dose-dependent effect

Compound: CN(C)CCCN1c2ccccc2CCc2ccccc21
- Activity (Mus musculus [16]): Active
